Among the data in patent publication US8816092B2, “Indazole derivative or salt thereof and production intermediate thereof, and antioxidant using same, and use of indazole derivative or salt thereof” (Ube Industries, Ltd., priority 2010, dated 2014) are antioxidation action and IC50 values, retold here.

Counter-ions that a name gives are not always drawn.

The test system of this assay is rat liver microsome lipid peroxidation. As to the kind of experiment: Antioxidation action test in rat liver microsome (microsome lipid peroxidation measuring system, TBARS generation). The class given is biochemical. The note with it: for antioxidation action: microsome lipid peroxidation measuring system using a rat liver microsome, result in words; for IC50: rat liver microsome, NADPH 500 μM + ferrous sulfate 50 μM, 20 minutes reaction, 37° C., n=2, nonlinear regression, read-out: IC50 (TBARS generation suppressing action). The method, then:
1. Antioxidation Action Test in Rat Liver Microsome
Using a microsome lipid peroxidation measuring system, an antioxidation action of a test compound was evaluated. This test quantifies a thiobarbituric acid reaction substance (TBARS) that is generated by a lipid peroxidation reaction caused by adding nicotinamide adenine dinucleotide phosphoric acid and ferrous sulfate to a microsome. To this system, a test compound is added, and a TBARS generation suppressing action by the test compound is evaluated as an antioxidation action. This method is a general method for measuring an antioxidation action of a compound or the like (Reference document: Yakugaku Zasshi 119, 93-99 (1999), Biochimica et Biophysics Acta, 1046, (1990) 207-213, Chemistry & Biology Experiment line 2, lipid peroxidation experimental method (Hirokawa shoten)).
A buffer solution was prepared by mingling to achieve 25 mM tris(hydroxymethyl)aminomethane (Tris) (pH 7.4) and 150 mM potassium chloride (KCl).
Ferrous sulfate (FeSO4.7H2O) was dissolved in distilled water to prepare a 5 mM solution.
Nicotinamide adenine dinucleotide phosphoric acid (NADPH) was dissolved in distilled water to prepare a 50 mM solution.
Ethylenediaminetetraacetic acid (EDTA) was dissolved in distilled water to prepare a 200 mM solution.
Five μL of a commercially available rat liver microsome [XENOTECH, catalog No. R1000 (20 mg protein/mL)] was used.
As a test compound, Compound A which is an inventive compound [1-[6-(4-cyclopropyl-1H-indazol-5-yl)pyridin-3-yl]-1-ethylenepropylamine hydrochloride (Example compound 2)], and Compound B having a similar compound structure [1-[6-(4-cyclopropyl-1H-indazol-5-yl)pyridin-3-yl]-1-methyl ethyl amine hydrochloride (synthesized according to a method described in European Patent Publication No. 1679308)] were used. Ten mM test compound solutions were prepared by dissolving 1.3 mg of Compound A in 0.315 mL of dimethyl sulfoxide (DMSO), and dissolving 2.15 mg of Compound B in 0.554 mL of dimethyl sulfoxide (DMSO).
[drawing 8] (Evaluation Method) 1) A test compound solution (5 μL) was put into a reaction tube. […] 7) A thiobarbituric acid reaction substance (TBARS) generation value in the reaction completed solution was measured using a commercially available TBARS measuring kit [Cayman, Catalog No. 10009055].
As a non-lipid peroxidation reaction group, a test was conducted by adding distilled water in place of nicotinamide adenine dinucleotide phosphoric acid and ferrous sulfate, and a TBARS generation value was measured. The number of examples of each group is n=2, and the TBARS generation suppressing rate (%) was calculated from an average value of n=2 according to the following formula 1, and IC50 of the test compound was measured by nonlinear regression of statistical analysis software (EXSAS). […]
On the technique in general: Microsomes from liver hold many membrane-bound enzymes, among them those of drug oxidation.

Consider `CCC(N)(CC)c1ccc(-c2ccc3[nH]ncc3c2C2CC2)nc1` [Compound A, 1-[6-(4-cyclopropyl-1H-indazol-5-yl)pyridin-3-yl]-1-ethylpropylamine hydrochloride], for which the antioxidation action entry is “exhibited a strong antioxidation action” and the IC50 came out at 3.8 µM.
The like results for `CC(C)(N)c1ccc(-c2ccc3[nH]ncc3c2C2CC2)nc1` [Compound B, 1-[6-(4-cyclopropyl-1H-indazol-5-yl)pyridin-3-yl]-1-methyl ethyl amine hydrochloride] were, in that order, “did not exhibit a strong antioxidation action” and more than 100 µM.
